One assay relates to TNFα. The assay is described as follows: IRAK4 Monocyte TNFα Cell Based Assay. Details: species or system human. In outline:
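Human monocytes (5,000/well) pretreated with compound 1 h at 37 °C (0.1% DMSO final), then stimulated with 50 pg/ml LPS for 4 h. Secreted TNFα measured by TR-FRET two-antibody detection after overnight incubation at room temperature; % control relative to unstimulated and LPS-stimulated wells.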

The next assay has as its target IRAK4 enzyme (Homo sapiens (Human), UniProt Q9NWZ3). The assay is described as follows: IRAK4 Biochemical Assay (TR-FRET, STK1 KinEASE). On the procedure: IRAK4 enzyme (Carna Biosciences, Chuo-ku, Kobe, Japan) activity was measured by detecting phosphorylated peptide substrate formation using an antibody against the phosphorylated peptide substrate. This is a time-resolved fluorescence resonance energy transfer (TR-FRET) immunoassay, based on the STK1 KinEASE Assay (Cisbio, Bedford, Mass.). The assay was designed as a simple two-step, endpoint assay (a 5 μl enzyme reaction followed by 5 μl stop and detect Solution) performed in ProxiPlate-384 Plus plates (Perkin Elmer, Waltham, Mass.). […] Compounds diluted in DMSO were spotted into 384 well plates using a Labcyte® Echo 550 Liquid Handling System prior to addition of IRAK4 enzyme and peptide substrate. Reaction solutions were delivered using a Multi-Flo (Bio-Tek Instruments). The enzyme and peptide solution was incubated with compound for 15 minutes at room temp before the reaction was initiated by the addition of ATP. The standard 5 μl reaction mixture contained 500 μM ATP, […] peptide (STK1 Peptide), 0.75 nM of IRAK4 in reaction buffer (50 mM HEPES, pH 7.0, 0.02% NaN3, 0.01% BSA, 0.1 mM Orthovanadate, 5 mM […], 0.025% NP-40, 1 mM DTT). After 120 min of incubation at room temperature, 5 μl of Stop and Detect Solution (1:100 Cryptate labeled anti-phosphorylated peptide antibody solution and 125 nM Tracer in a 50 mM HEPES pH 7.0 detection buffer containing sufficient EDTA) was added. The plate was then further incubated for 60 minutes at room temperature and read on Envision 2103 Multilabeled reader (PerkinElmer) with excitation/emission/FRET emission at 340 nm/615 nm665 nm, respectively. Fluorescence intensities at 615 nm and 665 nm emission wavelengths were expressed as aratio (665 nm/615 nm). Percentage of inhibition was calculated as below: % Inhibition=100×(Ratiosample−Ratio0% Inhibition)/(Ratio100% Inhibition−Ratio0% Inhibition)
The 0% inhibition value comes from control wells lacking inhibitor.

Setting [1] is: Homo sapiens, Monocyte, read-out: EC50 MONO TNF HTRF.
The mark [2] stands for this setting: Homo sapiens, Monocyte, human monocytes, second part of Table 2, compounds 33-343, unit inferred, read-out: EC50 MONO TNF HTRF.
Setting [3] is: Homo sapiens, Monocyte, human monocytes, LPS stimulated, compounds 1-32, read-out: EC50 TNF.
Setting [4] is: compounds 1-32, read-out: IC50 HTRF.
[5] abbreviates: human monocytes, second part of Table 2, compounds 33-343, unit inferred, read-out: EC50 MONO TNF HTRF.
Setting [6] is: second part of Table 2, compounds 33-343, unit inferred, read-out: IC50 IRAK4-HTBS.

Read-outs that look alike come from different tables or passages of the source.

Chain of IRAK4 enzyme (Q9NWZ3 whole entry): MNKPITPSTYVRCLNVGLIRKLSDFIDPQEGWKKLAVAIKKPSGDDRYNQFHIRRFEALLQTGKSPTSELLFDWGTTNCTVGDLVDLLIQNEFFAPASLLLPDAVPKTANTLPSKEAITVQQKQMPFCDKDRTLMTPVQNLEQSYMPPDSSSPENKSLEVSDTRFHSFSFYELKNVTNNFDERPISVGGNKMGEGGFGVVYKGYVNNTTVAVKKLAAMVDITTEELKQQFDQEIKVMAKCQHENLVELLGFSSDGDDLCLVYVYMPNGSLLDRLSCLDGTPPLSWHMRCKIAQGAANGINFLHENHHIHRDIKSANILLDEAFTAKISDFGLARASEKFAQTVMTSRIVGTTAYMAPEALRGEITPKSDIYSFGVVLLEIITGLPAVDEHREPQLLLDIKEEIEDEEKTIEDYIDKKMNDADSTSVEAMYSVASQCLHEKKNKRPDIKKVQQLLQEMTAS

On to `CC(=O)N1C2CCC1CN(c1nnc(-c3cnc(-c4ccc5cc(C#N)cnn45)cc3NC(C)C)s1)C2` [Compound 259, 7-(5-(5-(8-acetyl-3,8-diazabicyclo[3.2.1]octan-3-yl)-1,3,4-thiadiazol-2-yl)-4-(isopropylamino)pyridin-2-yl)pyrrolo[1,2-b]pyridazine-3-carbonitrile], for which the 50% effective concentration (EC50) with TNFα (setting [1]) is 2.6 nM. The IC50 against IRAK4 enzyme amounted to 0.94 nM.
As to `CC(C)Nc1cc(-c2ccc3cc(C#N)cnn23)ncc1-c1nnc(N2CC3CC(C2)O3)s1` [Compound 233, 7-(5-(5-(6-oxa-3-azabicyclo[3.1.1]heptan-3-yl)-1,3,4-thiadiazol-2-yl)-4-(isopropylamino)pyridin-2-yl)pyrrolo[1,2-b]pyridazine-3-carbonitrile], in the assay with TNFα (setting [1]), the EC50 is 6.4 nM. At IRAK4 enzyme, this compound returned a half-maximal inhibitory concentration (IC50) of 0.35 nM.
On to `CC(=O)N[C@@H]1CCN(c2nnc(-c3cnc(-c4ccc5cc(C#N)cnn45)cc3NC(C)C)s2)CC1(F)F` [Example 168, (R)-N-(1-(5-(6-(3-cyanopyrrolo[1,2-b]pyridazin-7-yl)-4-(isopropylamino)pyridin-3-yl)-1,3,4-thiadiazol-2-yl)-3,3-difluoropiperidin-4-yl)acetamide], for which, in the assay on TNFα (setting [2]), the EC50 stood at 8.4 nM. On IRAK4 enzyme, this compound registered an IC50 of 0.65 nM.
In the case of `CC(C)Nc1cc(-c2ccc3cc(C#N)cnn23)ncc1-c1nnc(N2CC3CCC(C2)N3C(=O)C2CC2)s1` [Compound 263, 7-(5-(5-(8-(cyclopropanecarbonyl)-3,8-diazabicyclo[3.2.1]octan-3-yl)-1,3,4-thiadiazol-2-yl)-4-(isopropylamino)pyridin-2-yl)pyrrolo[1,2-b]pyridazine-3-carbonitrile], the EC50 with TNFα (setting [1]) worked out at 5.1 nM. The compound further had a half-inhibitory concentration (IC50) against IRAK4 enzyme of 1.08 nM.
Turning to `CC(=O)NC1CCCN(c2nnc(-c3cnc(-c4ccc5cc(C#N)cnn45)cc3NC(C)C)s2)CC1` (stereo not drawn) [Example 298, N-(1-(5-(6-(3-cyanopyrrolo[1,2-b]pyridazin-7-yl)-4-(isopropylamino)pyridin-3-yl)-1,3,4-thiadiazol-2-yl)azepan-4-yl)acetamide], the EC50 in the assay on TNFα (setting [2]) is 36.3 nM. At IRAK4 enzyme, this compound had an IC50 of 0.61 nM.
Turning to `CC(C)Nc1cc(-c2ccc3cc(C#N)cnn23)ncc1-c1nnc(N2C3CC2CN(C(=O)C(C)(C)O)C3)s1` [Compound 275, 7-(5-(5-(3-(2-hydroxy-2-methylpropanoyl)-3,6-diazabicyclo[3.1.1]heptan-6-yl)-1,3,4-thiadiazol-2-yl)-4-(isopropylamino)pyridin-2-yl)pyrrolo[1,2-b]pyridazine-3-carbonitrile], in the assay with TNFα (setting [2]), the EC50 was 6.4 nM. This compound gave a half-inhibitory concentration (IC50) at IRAK4 enzyme of 0.78 nM.
As for `N#Cc1cnn2c(-c3cc(NC4CCOCC4)c(-c4nnc(N5CC6CCC(C5)O6)s4)cn3)ccc2c1` [Compound 256, 7-(5-(5-(8-oxa-3-azabicyclo[3.2.1]octan-3-yl)-1,3,4-thiadiazol-2-yl)-4-((tetrahydro-2H-pyran-4-yl)amino)pyridin-2-yl)pyrrolo[1,2-b]pyridazine-3-carbonitrile], the concentration giving a half-maximal response (EC50) in the assay with TNFα (setting [2]) stood at 4.6 nM. This compound returned an IC50 against IRAK4 enzyme of 0.68 nM.
As for `CC(C)Nc1cc(-c2ccc3cc(C#N)cnn23)ncc1-c1nnc(CCN)s1` [Example 26, 7-(5-(5-(2-aminoethyl)-1,3,4-thiadiazol-2-yl)-4-(isopropylamino)pyridin-2-yl)pyrrolo[1,2-b]pyridazine-3-carbonitrile], in the assay with TNFα (setting [3]), the 50% effective concentration (EC50) was determined as 305 nM. For the same compound, the IC50 on IRAK4 enzyme (setting [4]) is 1 nM.
Turning to `CC(=O)NC[C@@H]1CCCN1C(=O)c1nnc(-c2cnc(-c3ccc4cc(C#N)cnn34)cc2NC(C)C)s1` [Example 41, (S)-N-((1-(5-(6-(3-cyanopyrrolo[1,2-b]pyridazin-7-yl)-4-(isopropylamino)pyridin-3-yl)-1,3,4-thiadiazole-2-carbonyl)pyrrolidin-2-yl)methyl)acetamide], in the assay with TNFα (setting [2]), the concentration giving a half-maximal response (EC50) came out at 11.6 nM. The IC50 against IRAK4 enzyme came to 1.38 nM.
As to `CC(=O)N[C@H]1CC[C@H](c2nnc(-c3cnc(-c4ccc5cc(C#N)cnn45)cc3NCC#N)s2)CC1` [Example 20, N-((1r,4r)-4-(5-(4-((cyanomethyl)amino)-6-(3-cyanopyrrolo[1,2-b]pyridazin-7-yl)pyridin-3-yl)-1,3,4-thiadiazol-2-yl)cyclohexyl)acetamide], in the assay on TNFα (setting [3]), the 50% effective concentration (EC50) was 6 nM. Besides, the IC50 at IRAK4 enzyme (setting [4]) was below 1 nM.
Take `CC(=O)NC12CCC(CC1)N(c1nnc(-c3cnc(-c4ccc5cc(C#N)cnn45)cc3NC(C)C)s1)C2` [Example 66, N-(2-(5-(6-(3-cyanopyrrolo[1,2-b]pyridazin-7-yl)-4-(isopropylamino)pyridin-3-yl)-1,3,4-thiadiazol-2-yl)-2-azabicyclo[2.2.2]octan-4-yl)acetamide]: the EC50 in the assay on TNFα (setting [2]) was determined as 13.6 nM. On IRAK4 enzyme, the 50% inhibitory concentration (IC50) was found to be 0.42 nM.
The corresponding values for `CC(=O)N[C@@H]1CCN(c2nnc(-c3cnc(-c4ccc5cc(C#N)cnn45)cc3N[C@H](C)C#N)s2)CC1(F)F` [Example 151, N-((R)-1-(5-(4-(((R)-1-cyanoethyl)amino)-6-(3-cyanopyrrolo[1,2-b]pyridazin-7-yl)pyridin-3-yl)-1,3,4-thiadiazol-2-yl)-3,3-difluoropiperidin-4-yl)acetamide] are 5 nM and 1.03 nM.
The corresponding values for `CC(C)Nc1cc(-c2ccc3cc(C#N)cnn23)ncc1-c1nnc(N2CC[C@](C)(O)[C@H](F)C2)s1` [Example 192, 7-(5-(5-((3R,4S)-3-fluoro-4-hydroxy-4-methylpiperidin-1-yl)-1,3,4-thiadiazol-2-yl)-4-(isopropylamino)pyridin-2-yl)pyrrolo[1,2-b]pyridazine-3-carbonitrile] are 24.6 nM and 1.21 nM.
Regarding `CC(C)Nc1cc(-c2ccc3cc(C#N)cnn23)ncc1-c1nnc(N2CC3CC(C2)N3C(=O)OC(C)(C)C)s1` [Compound 271, tert-butyl 3-(5-(6-(3-cyanopyrrolo[1,2-b]pyridazin-7-yl)-4-(isopropylamino)pyridin-3-yl)-1,3,4-thiadiazol-2-yl)-3,6-diazabicyclo[3.1.1]heptane-6-carboxylate], the half-maximal effective concentration (EC50) in the assay on TNFα (setting [1]) worked out at 89 nM. This compound came in with an IC50 at IRAK4 enzyme of 3.22 nM.
Consider `CC(C)(O)[C@@H]1C[C@@H]1c1nnc(-c2cnc(-c3ccc4cc(C#N)cnn34)cc2NC2COC2)s1` (single isomer, unassigned; isomer 3) [136 Isomer 3], for which the 50% effective concentration (EC50) in the assay on TNFα (setting [5]) amounted to 39 nM. In addition, at IRAK4 enzyme (setting [6]), the IC50 is 0.64 nM.
Take `CC(C)Nc1cc(-c2ccc3cc(C#N)cnn23)ncc1-c1nnc(C(=O)NCCCN2CCCCC2)s1` [Example 11, 5-(6-(3-cyanopyrrolo[1,2-b]pyridazin-7-yl)-4-(isopropylamino)pyridin-3-yl)-N-(3-(piperidin-1-yl)propyl)-1,3,4-thiadiazole-2-carboxamide]: the EC50 in the assay with TNFα (setting [3]) was 1170 nM. The concentration for half-maximal inhibition (IC50) at IRAK4 enzyme (setting [4]) was below 1 nM.
In the case of `CC(C)Nc1cc(-c2ccc3cc(C#N)cnn23)ncc1-c1nnc(CC(C)(C)O)s1` [Example 320, 7-(5-(5-(2-hydroxy-2-methylpropyl)-1,3,4-thiadiazol-2-yl)-4-(isopropylamino)pyridin-2-yl)pyrrolo[1,2-b]pyridazine-3-carbonitrile], in the assay with TNFα (setting [1]), the EC50 came to 68.3 nM. This compound also returned an IC50 against IRAK4 enzyme of 1.18 nM.
`CC(=O)NC12CCC(c3nnc(-c4cnc(-c5ccc6cc(C#N)cnn56)cc4NC(C)C)s3)(CC1)C2` [Example 284, N-(4-(5-(6-(3-cyanopyrrolo[1,2-b]pyridazin-7-yl)-4-(isopropylamino)pyridin-3-yl)-1,3,4-thiadiazol-2-yl)bicyclo[2.2.1]heptan-1-yl)acetamide]: the EC50 with TNFα (setting [2]) stood at 17.6 nM. This compound showed an IC50 at IRAK4 enzyme of 0.69 nM.
For the compound `CC(C)(O)[C@H]1C[C@H]1c1nnc(-c2cnc(-c3ccc4cc(C#N)cnn34)cc2NC2COC2)s1` (single isomer, unassigned; isomer 4) [136 Isomer 4], the EC50 with TNFα (setting [5]) came out at 30.5 nM. Moreover, the concentration for half-maximal inhibition (IC50) at IRAK4 enzyme (setting [6]) is 0.74 nM.
On to `CC(=O)N[C@@H]1CCN(c2nnc(-c3cnc(-c4ccc5cc(C#N)cnn45)cc3NC3(C)COC3)s2)CC1(F)F` (single isomer, unassigned; isomer 1) [147 Isomer 1], for which the EC50 in the assay on TNFα (setting [5]) was 8.2 nM. Besides, the IC50 at IRAK4 enzyme (setting [6]) worked out at 0.63 nM.
For the compound `CC(C)Nc1cc(-c2ccc3cc(C#N)cnn23)ncc1-c1nnc(N2CC3CCC(C3)C2)s1` [Example 291, 7-(5-(5-(3-azabicyclo[3.2.1]octan-3-yl)-1,3,4-thiadiazol-2-yl)-4-(isopropylamino)pyridin-2-yl)pyrrolo[1,2-b]pyridazine-3-carbonitrile], the EC50 with TNFα (setting [2]) worked out at 59.3 nM. The compound also returned an IC50 on IRAK4 enzyme of 1.78 nM.

The record behind these values is patent publication US11046686B2, “Thiadiazole IRAK4 compounds” (Gilead Sciences, Inc., priority 2018, dated 2021).
